Values after ≈ are worked out from the molar mass of the structure shown. Active and inactive are the calls of the source. The calls are words filed in the database; no cut-off is given here. Peptide text beside a SMILES is read from it.
Key:
Staphylococcus aureus [1] = assay: Induction of cell membrane damage in Staphylococcus aureus ATCC 25923 at 5 times MIC incubated for 60 mins by SEM analysis; format: functional, organism-based
Staphylococcus aureus [2] = assay: Bactericidal activity against Staphylococcus aureus VRS1 at 4 times MIC incubated for 24 hrs by time kill assay relative to control; format: functional
Staphylococcus aureus [3] = assay: Antibacterial activity against methicillin-resistant Staphylococcus aureus ATCC BAA-44 incubated for 16 to 18 hrs by broth microdilution method; format: functional; conditions: time 16-18 hrs
Escherichia coli [4] = assay: Antibacterial activity against Escherichia coli ATCC 25922 incubated for 16 to 18 hrs by broth microdilution method; format: functional; conditions: time 16-18 hrs
Escherichia coli [5] = assay: Induction of cell membrane damage in Escherichia coli ATCC 25922 at 5 times MIC incubated for 60 mins by PI staining based FACS analysis; format: functional, organism-based
Staphylococcus aureus [6] = assay: Induction of cell membrane damage in Staphylococcus aureus ATCC 25923 at 5 times MIC incubated for 60 mins by PI staining based FACS analysis; format: functional, organism-based
Acinetobacter baumannii = assay: Antibacterial activity against Acinetobacter baumanni ATCC 19606 incubated for 16 to 18 hrs by broth microdilution method; format: functional; conditions: time 16-18 hrs
Staphylococcus aureus [7] = assay: Antibacterial activity against methicillin-resistant Staphylococcus aureus ATCC 33591 incubated for 16 to 18 hrs by broth microdilution method; format: functional; conditions: time 16-18 hrs
Pseudomonas aeruginosa = assay: Antibacterial activity against Pseudomonas aeruginosa ATCC BAA-427 incubated for 16 to 18 hrs by broth microdilution method; format: functional; conditions: time 16-18 hrs
Staphylococcus aureus [8] = assay: Antibacterial activity against Staphylococcus aureus ATCC 25923 incubated for 16 to 18 hrs by broth microdilution method; format: functional; conditions: time 16-18 hrs
[9] = Cytotoxicity against mouse 3T3-L1 cells assessed as cell viability upto 60 uM incubated for 4 hrs by MTT assay relative to control; format: toxicity, cell-based; conditions: read-out: Activity
Staphylococcus aureus [10] = assay: Induction of cell membrane damage in Staphylococcus aureus ATCC 25923 at 1 to 5 times MIC by SYTOX green fluorescence based analysis; format: functional, organism-based
Staphylococcus aureus [11] = assay: Bactericidal activity against Staphylococcus aureus ATCC 25923 incubated for 16 hrs; format: functional
Escherichia coli [12] = assay: Induction of cell membrane damage in Escherichia coli ATCC 25922 assessed as membrane blebbing at 5 times MIC incubated for 60 mins by SEM analysis; format: functional, organism-based
Staphylococcus aureus [13] = assay: Induction of cell membrane damage in Staphylococcus aureus ATCC 25923 assessed as bacterial content leakage at 5 times MIC incubated for 60 mins by SEM analysis; format: functional, organism-based
Staphylococcus aureus [14] = assay: Induction of cell membrane damage in Staphylococcus aureus ATCC 25923 assessed as membrane blebbing at 5 times MIC incubated for 60 mins by SEM analysis; format: functional, organism-based
Staphylococcus aureus [15] = assay: Induction of cell membrane damage in Staphylococcus aureus ATCC 25923 assessed as membrane distortion at 5 times MIC incubated for 60 mins by SEM analysis; format: functional, organism-based
Escherichia coli [16] = assay: Induction of cell membrane damage in Escherichia coli ATCC 25922 at 1 to 5 times MIC by SYTOX green fluorescence based analysis; format: functional, organism-based
Escherichia coli [17] = assay: Bactericidal activity against Escherichia coli ATCC 25922 incubated for 16 hrs; format: functional
Escherichia coli [18] = assay: Induction of cell membrane damage in Escherichia coli ATCC 25922 assessed as wrinkling on bacterial surface at 5 times MIC incubated for 60 mins by SEM analysis; format: functional, organism-based
[19] = Hemolytic activity against human RBCs upto 100 uM incubated for 45 mins by absorbance based assay; format: toxicity, cell-based, Erythrocyte; conditions: red blood cells (erythrocytes), read-out: Activity
Staphylococcus aureus [20] = assay: Antimicrobial activity against methicillin-resistant Staphylococcus aureus; format: functional, organism-based
[21] = Toxicity in BALB/c mouse assessed as animal death at 15 to 30 mg/kg, ip measured for 18 hrs; format: organism-based; conditions: in vivo, dose 15-30 mg/kg
[22] = Acute toxicity in BALB/c mouse assessed as animal survival at 50 mg/kg, ip measured for 7 days; format: organism-based; conditions: in vivo, 168 h, time 7 day
Staphylococcus aureus [23] = assay: Antibacterial activity against Staphylococcus aureus ATCC 25923 infected in BALB/c mouse assessed as bacterial load in liver at 30 mg/kg, ip measured after 18 hrs (Rvb ~ 1.75 x10^7); format: functional
Staphylococcus aureus [24] = assay: Bactericidal activity against Staphylococcus aureus VRS1 at 1 to 4 times MIC by time kill assay; format: functional, organism-based; conditions: time <= 24.0 hrs
[25] = Acute toxicity in BALB/c mouse assessed as signs of toxicity at 50 mg/kg, ip measured for 7 days; format: organism-based; conditions: in vivo, 168 h, time 7 day
Staphylococcus aureus [26] = assay: Antibacterial activity against Staphylococcus aureus ATCC 25923 infected in BALB/c mouse assessed as bacterial load in blood at 30 mg/kg, ip measured after 18 hrs (Rvb ~ 6 x10^6); format: functional
Staphylococcus aureus [27] = assay: Antimicrobial activity against vancomycin-resistant Staphylococcus aureus; format: functional, organism-based
Staphylococcus aureus [28] = assay: Antibacterial activity against Staphylococcus aureus ATCC 25923 infected in BALB/c mouse assessed as bacterial load in spleen at 30 mg/kg, ip measured after 18 hrs (Rvb ~ 1 x10^7); format: functional
Staphylococcus aureus [29] = assay: Bactericidal activity against Staphylococcus aureus VRS1 at 4 times MIC incubated for 6 hrs by time kill assay relative to control; format: functional
Erythrocyte = assay: Hemolytic activity against human RBCs upto 70 uM incubated for 45 mins by absorbance based assay; format: toxicity, cell-based; conditions: 0.75 h
Staphylococcus aureus [30] = assay: Antibacterial activity against Staphylococcus aureus ATCC 25923 infected in BALB/c mouse assessed as bacterial load in lung at 30 mg/kg, ip measured after 18 hrs (Rvb ~ 5 x10^6); format: functional

SMILES	MIC (Staphylococcus aureus [3]) [µM]	MIC (Escherichia coli [4]) [µM]	Activity (Escherichia coli [5])	Activity (Staphylococcus aureus [6])	MIC (Acinetobacter baumannii) [µM]	MIC (Staphylococcus aureus [7]) [µM]	MIC (Pseudomonas aeruginosa) [µM]	MIC (Staphylococcus aureus [8]) [µM]	viability at 4 h, up to 60 µM [9] [%]	Activity (Staphylococcus aureus [10])	MBC (Staphylococcus aureus [11]) [µM]	Activity (Escherichia coli [12])	Activity (Staphylococcus aureus [13])	Activity (Staphylococcus aureus [14])	Activity (Staphylococcus aureus [15])	Activity (Escherichia coli [16])	MBC (Escherichia coli [17]) [µM]	Activity (Escherichia coli [18])	further results
CC[C@H](C)[C@H](NC(=O)[C@H](CCCNC(=N)N)NC(=O)CNC(=O)[C@H](CC(C)C)NC(=O)[C@H](Cc1ccccc1)NC(=O)[C@H](CCCCN)NC(=O)[C@H](CO)NC(=O)[C@H](Cc1ccccc1)NC(=O)[C@H](Cc1c[nH]c2ccccc12)NC(=O)[C@H](CCC(N)=O)NC(=O)[C@@H](NC(=O)[C@@H](N)Cc1ccccc1)C(C)C)C(=O)N[C@@H](CC(C)C)C(N)=O (H-FVQWFSKFLGRIL-NH2)																			Activity (Staphylococcus aureus [1]): Active
CCCCCCCCCC(=O)N[C@@H](Cc1c[nH]c2ccccc12)C(=O)N[C@H](CC(N)=O)C(=O)N[C@@H](CC(=O)O)C(=O)N[C@@H]1C(=O)NCC(=O)N[C@@H](CCCN)C(=O)N[C@@H](CC(=O)O)C(=O)N[C@H](C)C(=O)N[C@@H](CC(=O)O)C(=O)NCC(=O)N[C@H](CO)C(=O)N[C@@H]([C@H](C)CC(=O)O)C(=O)N[C@@H](CC(=O)c2ccccc2N)C(=O)O[C@@H]1C																			Activity (Staphylococcus aureus [2]): 100%
COC(=O)[C@H](CCCNC(=N)NS(=O)(=O)c1ccc(C)cc1)NC(=O)[C@@H](N)Cc1cc2ccc3ccc4ccc5ccc1c1c5c4c3c21	> 400	> 400	Active	Active	> 400	> 400	> 400	> 400											
COC(=O)[C@H](Cc1cc2ccc3ccc4ccc5ccc1c1c5c4c3c21)NC(=O)[C@H](N)CCCCN	25 (≈ 12 µg/mL)	100 (≈ 48 µg/mL)	Active	Active	50 (≈ 24 µg/mL)	25 (≈ 12 µg/mL)	50 (≈ 24 µg/mL)	25 (≈ 12 µg/mL)	3	Active	50 (≈ 24 µg/mL)	Active	Active	Active	Active	inactive	200 (≈ 95.9 µg/mL)	Active	
CN(C)[C@@H]1C(O)=C(C(N)=O)C(=O)[C@@]2(O)C(O)=C3C(=O)c4c(O)cccc4[C@@](C)(O)[C@H]3C[C@@H]12 [TETRACYCLINE]	0.78 (≈ 0.347 µg/mL)	0.78 (≈ 0.347 µg/mL)			0.39 (≈ 0.173 µg/mL)	0.78 (≈ 0.347 µg/mL)	1.56 (≈ 0.693 µg/mL)	0.39 (≈ 0.173 µg/mL)			0.78 (≈ 0.347 µg/mL)						0.78 (≈ 0.347 µg/mL)		
COC(=O)[C@H](CCCc1cc2ccc3ccc4ccc5ccc1c1c5c4c3c21)NC(=O)CNC(=O)[C@@H](N)CCCCN	12.5 (≈ 7.06 µg/mL)	50 (≈ 28.2 µg/mL)	Active	Active	50 (≈ 28.2 µg/mL)	12.5 (≈ 7.06 µg/mL)	50 (≈ 28.2 µg/mL)	12.5 (≈ 7.06 µg/mL)	62	Active	12.5 (≈ 7.06 µg/mL)					inactive	50 (≈ 28.2 µg/mL)		hemolysis at 0.75 h, up to 100 µM [19]: ~5%
COC(=O)[C@H](CCCc1cc2ccc3ccc4ccc5ccc1c1c5c4c3c21)NC(=O)[C@@H](N)CCCCN	12.5 (≈ 6.35 µg/mL)	25 (≈ 12.7 µg/mL)	Active	Active	25 (≈ 12.7 µg/mL)	12.5 (≈ 6.35 µg/mL)	25 (≈ 12.7 µg/mL)	12.5 (≈ 6.35 µg/mL)	41	Active	12.5 (≈ 6.35 µg/mL)	Active	Active	Active	Active	inactive	25 (≈ 12.7 µg/mL)	Active	
COC(=O)[C@H](Cc1cc2ccc3ccc4ccc5ccc1c1c5c4c3c21)NC(=O)CNC(=O)[C@@H](N)CCCCN	12.5 (≈ 6.71 µg/mL)	50 (≈ 26.8 µg/mL)	Active	Active	100 (≈ 53.7 µg/mL)	12.5 (≈ 6.71 µg/mL)	50 (≈ 26.8 µg/mL)	12.5 (≈ 6.71 µg/mL)	47	Active	50 (≈ 26.8 µg/mL)					inactive	50 (≈ 26.8 µg/mL)		hemolysis at 0.75 h, up to 100 µM [19]: ~3%
O=C(O)c1cn(C2CC2)c2cc(N3CCNCC3)c(F)cc2c1=O [CIPROFLOXACIN]	0.39 (≈ 0.129 µg/mL)	0.39 (≈ 0.129 µg/mL)			0.39 (≈ 0.129 µg/mL)	1.56 (≈ 0.517 µg/mL)	1.56 (≈ 0.517 µg/mL)	0.39 (≈ 0.129 µg/mL)			0.39 (≈ 0.129 µg/mL)						0.39 (≈ 0.129 µg/mL)		
COC(=O)[C@H](Cc1cc2ccc3ccc4ccc5ccc1c1c5c4c3c21)NC(=O)[C@@H](N)CCCCN.Cl.Cl	12.5	50	Active	Active	200	25	200	25	71	Active	50	Active	Active	Active	Active	inactive	50	Active	Activity (Staphylococcus aureus [20]): Active; Activity [21]: Non-Toxic; Activity [22]: Non-Toxic; Activity (Staphylococcus aureus [23]): ~1.2 10^6CFU/ml; Activity (Staphylococcus aureus [24]): Dose-Dependent Effect; Activity [25]: Non-Toxic; Activity (Staphylococcus aureus [26]): ~7 10^4CFU/ml; Activity (Staphylococcus aureus [27]): Active; Activity (Staphylococcus aureus [28]): ~6.5 10^5CFU/ml; Activity (Staphylococcus aureus [29]): 100%; Activity (Erythrocyte): Non-Toxic; Activity (Staphylococcus aureus [30]): ~4.5 10^4CFU/ml

Reference: ChEMBL document CHEMBL5584357, “Corannulene Amino Acid-Derived Water-Soluble Amphiphilic Buckybowls as Broad-Spectrum Membrane Targeting Antibacterial Agents” (J Med Chem, 2024)
